Results taken from patent publication EP4806904A1, “POLYPEPTIDE AND USE THEREOF” (Sichuan Gooddoctor Panxi Pharmaceutical Co. Ltd, priority 2023, dated 2026).
Where a SMILES comes first, the peptide text is derived from it. [ ]: non-standard residue; d: D form.

How the values were obtained:
[1] = tested on: neural stem cell line C17.2; experiment: Proliferation of neural stem cell line C17.2, BrdU, high-content imaging; assay type: cell-based; conditions: 100 µg/mL, 48 h; for Proliferation-promoting results: percentage of BrdU-positive cells, significance vs blank control group; for number of BrdU positive cells: vs blank control group, in words
Method: • (1) C17.2 cells were seeded in 96-well plates at a concentration of 1500 cells/100 µL/well. After overnight culture for cell adherence, the cells were treated with drugs; • (2) Drug treatment was applied. The final concentration of the polypeptide of the invention was 100 µg/mL. Meanwhile, butylphthalide (NBP, 5 µM) was set as the positive control. The cells were cultured in the incubator for another 48 h; • (3) BrdU was added at 44 h of treatment to a final concentration of 10 µM. Immunofluorescence staining was performed 4 h later, and the percentage of BrdU-positive cells was statistically analyzed using a high-content cell imaging analysis system.

[2] = tested on: primary neural stem cells (NSCs); experiment: Differentiation of primary neural stem cells, βIII-tubulin fluorescence and Neurite Outgrowth Assay; assay type: cell-based, SD rats; conditions: 100 µg/mL; for neurite outgrowth (total neurite length, maximum neurite length, neurite terminals, neurite initiation points) / Number of neurite terminals / Total neurite length / mean fluorescence intensity of the neuronal marker protein βIII-tubulin / Average fluorescence intensity / Neurite initiation points (branches) / Longest neurite length: 4 days; for neurite outgrowth (total neurite length, maximum neurite length, neurite terminals, neurite initiation points): Neurite Outgrowth Assay; for neurite outgrowth (total neurite length, maximum neurite length, neurite terminals, neurite initiation points) / mean fluorescence intensity of the neuronal marker protein βIII-tubulin: in words; for Number of neurite terminals / Total neurite length / Average fluorescence intensity / Neurite initiation points (branches) / Longest neurite length: significance vs blank control group; for mean fluorescence intensity of the neuronal marker protein βIII-tubulin: vs blank control group; for Average fluorescence intensity: βIII-tubulin
Method: This part of the experiment requires feeding male and female rats in advance, then extracting hippocampal neural stem cells from newborn SD rats within 24 h of birth, culturing them to P3 for identification, and then using them for experiments. • (1) Extraction and culture of primary neural stem cells (NSCs) • (2) NSCs that have been passaged to P3 and have good viability were seeded in differentiation medium (2% FBS+DMEM/F12 1:1 medium) in 48-well plates with a cell concentration of 5×10^4 cells/mL per well. After overnight culture for cell adherence, the cells were treated with drugs; • (3) Drug treatment was applied. The final concentration of the polypeptide of the invention was 100 µg/mL. Meanwhile, nerve growth factor (NGF, 50 ng/mL) was set as the positive control, and the cells were cultured in the incubator for another 4 days; • (4) Immunofluorescence staining (primary antibody βIII-tubulin) was performed after 4 days of treatment. The average fluorescence intensity of βIII-tubulin was analyzed and the Neurite Outgrowth Assay was performed using a high-content cell imaging analysis system.

[3] = tested on: Brain microvascular endothelial cells (BMECs) and brain microvascular smooth muscle cells (BMVSMCs); experiment: In vitro angiogenesis assay, BMEC/BMVSMC co-culture on matrigel; assay type: cell-based, mouse; conditions: 0.1 mg/L, 48 h
Method: First, mouse brain microvascular pellets were obtained by differential centrifugation. Brain microvascular endothelial cells (BMECs) and brain microvascular smooth muscle cells (BMVSMCs) were isolated by digestion with collagenase II, respectively, and cultured in a cell incubator with 5% CO2 at 37°C . Cells at passages 3-6 in good growth condition and logarithmic growth phase were selected for the in vitro angiogenesis assay.
One night before the experiment, the high-concentration matrigel was transferred from a -20°C or -80°C refrigerator to a 4°C refrigerator and allowed to thaw slowly overnight in the 4°C refrigerator. Pipette tips required for the formal experiment were sterilized in advance and pre-cooled in a 4°C refrigerator for subsequent use.
On the day of the experiment, the matrigel was added to a 96-well plate 1 h in advance and placed in a 37°C cell incubator until it solidified. Subsequently, the cells were washed 2 times with 2 mL of PBS buffer, followed by digestion with 0.25% trypsin to obtain EC and VSMC pellets, respectively, and cell counting was performed. A uniform cell suspension containing 5×10^3 BMVSMCs and 1×10^3 BMECs per well was then seeded into the 96-well plate pre-coated with the matrigel, and cultured in a 37°C, 5% CO2 cell incubator for 3 days.
During the culture period, tube formation was observed daily. The medium was changed on day 4, followed by treatment with the polypeptide of the invention at 0.1 mg/L or VEGFA at 10/15/20 ng/L for 48 h, respectively.
On day 5, the cell nuclei and live cells were labeled with Hoechst 33342 and Calcein AM, respectively. High-content brightfield and fluorescence imaging were then performed using a high-content screening system. Finally, angiogenesis in each treatment group was analyzed using the Angiogenesis Analyzer plugin for ImageJ, and statistical analysis was carried out with GraphPad Prism 10.

[4] = significance vs blank control group

CC(C)C[C@H](NC(=O)[C@@H](NC(=O)CNC(=O)[C@@H]1CCCN1)[C@@H](C)O)C(=O)O [Compound 28, H-Pro-Gly-Thr-Leu-OH] (H-PGTL-OH)
Proliferation-promoting results [1]: * (*p < 0.05)
number of BrdU positive cells [1]: significant increase
neurite outgrowth (total neurite length, maximum neurite length, neurite terminals, neurite initiation points) [2]: tendency to promote neurite outgrowth
Number of neurite terminals [2]: * (*p < 0.05)
Total neurite length [2]: ** (**p < 0.01)

H-AAPAPGTL-OH [Compound 16, H-Ala-Ala-Pro-Ala-Pro-Gly-Thr-Leu-OH]
Proliferation-promoting results [1]: * (*p < 0.05)
mean fluorescence intensity of the neuronal marker protein βIII-tubulin [2]: significant increase
Average fluorescence intensity [2]: * (*p < 0.05)

H-LPAPGT-OH [Compound 32, H-Leu-Pro-Ala-Pro-Gly-Thr-OH]
Proliferation-promoting results [1]: * (*p < 0.05)
number of BrdU positive cells [1]: significant increase
Branch length [3, 4]: * (*p < 0.05)
Cell count [3, 4]: ** (**p < 0.01)

CC(=O)N[C@@H](C)C(=O)N[C@@H](CC(C)C)C(=O)N1CCC[C@H]1C(=O)N[C@@H](C)C(=O)N1CCC[C@@H]1C(=O)NCC(=O)N[C@H](C(=O)N[C@@H](CC(C)C)C(N)=O)[C@@H](C)O [Compound 41, Ac-Ala-Leu-Pro-Ala-D-Pro-Gly-Thr-Leu-NH2] (Ac-ALPA[dP]GTL-NH2)
neurite outgrowth (total neurite length, maximum neurite length, neurite terminals, neurite initiation points) [2]: tendency to promote neurite outgrowth
Neurite initiation points (branches) [2]: * (*p < 0.05)
Total neurite length [2]: * (*p < 0.05)
Branch length [3, 4]: ** (**p < 0.01)
Cell count [3, 4]: *** (***p < 0.001)
Number of intersections [3, 4]: ** (**p < 0.01)
angiogenesis-promoting effects ([3]; vs normal group, in words): exhibited angiogenesis-promoting effects

CC(C)C[C@H](NC(=O)[C@H](C)N)C(=O)N1CCC[C@H]1C(=O)N[C@@H](C)C(=O)O [Compound 35, H-Ala-Leu-Pro-Ala-OH] (H-ALPA-OH)
neurite outgrowth (total neurite length, maximum neurite length, neurite terminals, neurite initiation points) [2]: promote neurite outgrowth
Longest neurite length [2]: ** (**p < 0.01)
Neurite initiation points (branches) [2]: * (*p < 0.05)
Number of neurite terminals [2]: * (*p < 0.05)
Total neurite length [2]: * (*p < 0.05)
mean fluorescence intensity of the neuronal marker protein βIII-tubulin [2]: significant increase
differentiation of NSCs into neuronal cells ([2]; conclusion based on the results of the two analytical methods): promote the differentiation of NSCs into neuronal cells with stable effects
Average fluorescence intensity [2]: * (*p < 0.05)
Cell count [3, 4]: ** (**p < 0.01)
cell proliferation ([3]; vs normal group, in words): only promoted cell proliferation

H-ALPAPGAL-OH [Compound 18, H-Ala-Leu-Pro-Ala-Pro-Gly-Ala-Leu-OH]
Proliferation-promoting results [1]: *** (***p < 0.001)
Branch length [3, 4]: * (*p < 0.05)
Cell count [3, 4]: * (*p < 0.05)
Number of intersections [3, 4]: * (*p < 0.05)
angiogenesis-promoting effects ([3]; vs normal group, in words): exhibited angiogenesis-promoting effects

CC(C)C[C@H](NC(=O)[C@@H](NC(=O)CNC(=O)[C@@H]1CCCN1C(=O)[C@H](C)NC(=O)[C@@H]1CCCN1C(=O)[C@H](CC(C)C)NC(=O)[C@@H](C)N)[C@@H](C)O)C(=O)O [Compound 2, H-D-Ala-Leu-Pro-Ala-Pro-Gly-Thr-Leu-OH] (H-[dA]LPAPGTL-OH)
Longest neurite length [2]: ** (**p < 0.01)
Neurite initiation points (branches) [2]: * (*p < 0.05)
Number of neurite terminals [2]: ** (**p < 0.01)
Total neurite length [2]: ** (**p < 0.01)
Branch length [3, 4]: *** (***p < 0.001)
Cell count [3, 4]: * (*p < 0.05)
Number of intersections [3, 4]: ** (**p < 0.01)
angiogenesis-promoting effects ([3]; vs normal group, in words): exhibited angiogenesis-promoting effects

CC(C)C[C@H](NC(=O)[C@@H](NC(=O)CN)[C@@H](C)O)C(=O)O [Compound 38, H-Gly-Thr-Leu-OH] (H-Gly-Thr-Leu-OH)
mean fluorescence intensity of the neuronal marker protein βIII-tubulin [2]: tendency to enhance
Branch length [3, 4]: ** (**p < 0.01)
Cell count [3, 4]: * (*p < 0.05)
Number of intersections [3, 4]: ** (**p < 0.01)
angiogenesis-promoting effects ([3]; vs normal group, in words): exhibited angiogenesis-promoting effects

CC(C)C[C@H](NC(=O)[C@H](C)N)C(=O)N1CCC[C@H]1C(=O)N[C@@H](C)C(=O)N1CCC[C@H]1C(=O)NCC(=O)N[C@H](C(=O)N[C@H](CC(C)C)C(=O)O)[C@@H](C)O [Compound 8, H-Ala-Leu-Pro-Ala-Pro-Gly-Thr-D-Leu-OH] (H-ALPAPGT[dL]-OH)
Proliferation-promoting results [1]: * (*p < 0.05)
Branch length [3, 4]: ** (**p < 0.01)
Number of intersections [3, 4]: * (*p < 0.05)
angiogenesis-promoting effects ([3]; vs normal group, in words): exhibited angiogenesis-promoting effects

H-LAPAPGTL-OH [Compound 19, H-Leu-Ala-Pro-Ala-Pro-Gly-Thr-Leu-OH]
Proliferation-promoting results [1]: ** (**p < 0.01)
Branch length [3, 4]: * (*p < 0.05)
Number of intersections [3, 4]: * (*p < 0.05)
angiogenesis-promoting effects ([3]; vs normal group, in words): exhibited angiogenesis-promoting effects

CC(C)C[C@H](N)C(=O)N1CCC[C@H]1C(=O)N[C@@H](C)C(=O)N1CCC[C@H]1C(=O)O [Compound 31, H-Leu-Pro-Ala-Pro-OH] (H-LPAP-OH)
mean fluorescence intensity of the neuronal marker protein βIII-tubulin [2]: tendency to enhance
Branch length [3, 4]: ** (**p < 0.01)

CC(=O)N[C@@H](C)C(=O)N[C@@H](CC(C)C)C(=O)N1CCC[C@H]1C(=O)N[C@H](C)C(=O)N1CCC[C@H]1C(=O)NCC(=O)N[C@H](C(=O)N[C@@H](CC(C)C)C(N)=O)[C@@H](C)O [Compound 42, Ac-Ala-Leu-Pro-D-Ala-Pro-Gly-Thr-Leu-NH2] (Ac-ALP[dA]PGTL-NH2)
mean fluorescence intensity of the neuronal marker protein βIII-tubulin [2]: significant increase
Average fluorescence intensity [2]: * (*p < 0.05)
Branch length [3, 4]: * (*p < 0.05)
Cell count [3, 4]: * (*p < 0.05)
Branch length ([3]; vs normal group, in words): promoting effects
number of junctions ([3]; vs normal group, in words): no significant effects

H-QLPAPGTL-OH [Compound 22, H-Gln-Leu-Pro-Ala-Pro-Gly-Thr-Leu-OH]
neurite outgrowth (total neurite length, maximum neurite length, neurite terminals, neurite initiation points) [2]: promote neurite outgrowth
Longest neurite length [2]: * (*p < 0.05)
Neurite initiation points (branches) [2]: * (*p < 0.05)
Number of neurite terminals [2]: * (*p < 0.05)
Total neurite length [2]: * (*p < 0.05)
Branch length [3, 4]: * (*p < 0.05)
Branch length ([3]; vs normal group, in words): promoting effects
number of junctions ([3]; vs normal group, in words): no significant effects

H-PAPGTL-OH [Compound 26, H-Pro-Ala-Pro-Gly-Thr-Leu-OH]
mean fluorescence intensity of the neuronal marker protein βIII-tubulin [2]: tendency to enhance
Branch length [3, 4]: * (*p < 0.05)
Number of intersections [3, 4]: * (*p < 0.05)
angiogenesis-promoting effects ([3]; vs normal group, in words): exhibited angiogenesis-promoting effects

H-QLPAPGTLQHF-OH [Compound 25, H-Gln-Leu-Pro-Ala-Pro-Gly-Thr-Leu-Gln-His-Phe-OH]
mean fluorescence intensity of the neuronal marker protein βIII-tubulin [2]: significant increase
Average fluorescence intensity [2]: * (*p < 0.05)
Cell count [3, 4]: ** (**p < 0.01)
cell proliferation ([3]; vs normal group, in words): only promoted cell proliferation

C[C@H](N)C(=O)N1CCC[C@H]1C(=O)NCC(=O)N[C@H](C(=O)O)[C@@H](C)O [Compound 37, H-Ala-Pro-Gly-Thr-OH] (H-APGT-OH)
Proliferation-promoting results [1]: * (*p < 0.05)
number of BrdU positive cells [1]: significant increase
